Reference: publication PMC10815619, “Leveraging SARS-CoV-2 Main Protease (M^pro) for COVID-19 Mitigation with Selenium-Based Inhibitors” (International Journal of Molecular Sciences, 2024)
Where two headings read alike, the source gives them in different places.

Biological target: T1, SARS-CoV-2 M^pro (Severe acute respiratory syndrome coronavirus 2, UniProt P0DTD1)
T1 construct: covers ORF1ab polyprotein residues 3264–3569; N-terminal leader ending in the Mpro autocleavage site (SAVLQ*SGFRK) (N, cleaved yes); made in house; host or cells: Escherichia coli BL21 (DE3), pET100D-Topo vector
Assay: Fluorescence-based cleavage assay with AFC-peptide substrate, IC50 against M^pro
Assay type: biochemical
Procedure: For the determination of half-maximal inhibitory concentrations (IC50) of inhibitors against M^pro, an AFC-Peptide substrate (SAE0180, Merck) was used for a fluorescence-based cleavage assay [66]. The assay was performed in half area 96-well, black, flat-bottomed microtiter plates (Corstar, Corning, Glendale, CA, USA) with a final volume of 125 μL. M^pro (final concentrations of 5–50 nM) was pre-incubated for 1 h at 25 °C with compounds at different concentrations in the assay buffer (PBS, pH 7.5). […] The readings for the different concentrations of the inhibitor compounds incubated with the substrate without M^Pro were measured as a blank. […] The results were plotted as dose inhibition curves using nonlinear regression with a variable slope to determine the IC50 values of inhibitor compounds using GraphPad Prism 9.0.

SMILES	IC50 (recombinant M^pro 5-50 nM, 1 h pre-incubation at 25 °C, AFC-peptide substrate 12 μM, PBS pH 7.5, mean ± SD (n = 3), read-out: IC50 against M^pro)	IC50
Cc1cc(C)cc(NC(=O)[Se]Cc2ccc(S(N)(=O)=O)cc2)c1 [Cmp. 3c, Se-(4-Sulfamoylbenzyl) (3,5-Dimethylphenyl) Carbamoselenoate]	704 nM	–
Cc1ccc(NC(=O)[Se]c2ccccc2)cc1 [Cmp. 3b]	–	1040 ± 47 nM
